The values that follow come from PubChem BioAssay AID256 (DTP/NCI, 2004).

“And” between values parts separate entries of the source, which are not always exact repeats. Equal values may be shown once. Toxic doses and inconclusive results are not listed.

This assay relates to CD2F1 mice, L1210 leukemia ip, survival T/C. Kind of assay: NCI In Vivo Anticancer Drug Screen. Data for tumor model L1210 Leukemia (intraperitoneal) in CD2F1 (CDF1) mice. The conditions noted are these: higher = longer survival. An outline of the steps: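 Read-out first: treated-group measurement over vehicle-control measurement, expressed as a ratio. Animals bore a transplanted tumor line and were dosed with compound or vehicle.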

`O=c1[nH]c(=O)n(C2CC(O)C(CO)O2)cc1C(F)(F)F` (stereo not given): the T/C reads like this: (endpoint: mean survival time, dose: 16.0 mg/kg/injection, schedule: Q01DX009 (ip), vehicle: water) 152 % of control; (endpoint: mean survival time, dose: 16.0 mg/kg/injection, schedule: Q03HX016 (ip), vehicle: water) 123 % of control; (endpoint: mean survival time, dose: 16.0 mg/kg/injection, schedule: Q03HX024 (ip), vehicle: water) 171 % of control; (endpoint: mean survival time, dose: 64.0 mg/kg/injection, schedule: Q01DX009 (ip), vehicle: water) 152 % of control; (endpoint: mean survival time, dose: 64.0 mg/kg/injection, schedule: Q04DX003 (ip), vehicle: water) 118 % of control; (endpoint: mean survival time, dose: 128.0 mg/kg/injection, schedule: Q03HX016 (ip), vehicle: water) 157 % of control. Also, the T/C reads like this: (endpoint: mean survival time, dose: 128.0 mg/kg/injection, schedule: Q03HX024 (ip), vehicle: water) 109 % of control; (endpoint: mean survival time, dose: 128.0 mg/kg/injection, schedule: Q04DX003 (ip), vehicle: water) 112 % of control; (endpoint: mean survival time, dose: 128.0 mg/kg/injection, schedule: Q08DX002 (ip), vehicle: water) 100 % of control; (endpoint: mean survival time, dose: 256.0 mg/kg/injection, schedule: Q01DX001 (ip), vehicle: water) 108 % of control; (endpoint: mean survival time, dose: 256.0 mg/kg/injection, schedule: Q01DX009 (ip), vehicle: water) 112 % of control; (endpoint: mean survival time, dose: 256.0 mg/kg/injection, schedule: Q03HX008 (ip), vehicle: water) 152 % of control. The T/C is, setting by setting: (endpoint: mean survival time, dose: 256.0 mg/kg/injection, schedule: Q03HX016 (ip), vehicle: water) 163 % of control; (endpoint: mean survival time, dose: 256.0 mg/kg/injection, schedule: Q04DX003 (ip), vehicle: water) 118 % of control; (endpoint: mean survival time, dose: 256.0 mg/kg/injection, schedule: Q08DX002 (ip), vehicle: water) 109 % of control; (endpoint: mean survival time, dose: 512.0 mg/kg/injection, schedule: Q01DX001 (ip), vehicle: water) 114 % of control; (endpoint: mean survival time, dose: 512.0 mg/kg/injection, schedule: Q03HX008 (ip), vehicle: water) 153 % of control; (endpoint: mean survival time, dose: 512.0 mg/kg/injection, schedule: Q08DX002 (ip), vehicle: water) 112 % of control. In addition, the T/C reads like this: (endpoint: mean survival time, dose: 1024.0 mg/kg/injection, schedule: Q08DX002 (ip), vehicle: water) 114 % of control; (endpoint: mean survival time, dose: 2048.0 mg/kg/injection, schedule: Q01DX001 (ip), vehicle: water) 121 % of control; (endpoint: mean survival time, dose: 2048.0 mg/kg/injection, schedule: Q08DX002 (ip), vehicle: water) 124 % of control.
On to `CS(=O)(=O)OCCCNCCCOS(C)(=O)=O`, for which the T/C (endpoint: mean survival time, dose: 6.3 mg/kg/injection, schedule: Q01DX009 (ip), vehicle: saline) was 123 % of control; the T/C (endpoint: mean survival time, dose: 6.3 mg/kg/injection, schedule: Q04DX003 (ip), vehicle: saline) is 119 % of control and 114 % of control; the T/C (endpoint: mean survival time, dose: 10.0 mg/kg/injection, schedule: Q03DX003 (ip), vehicle: saline) is 121 % of control; the T/C (endpoint: mean survival time, dose: 12.5 mg/kg/injection, schedule: Q01DX001 (ip), vehicle: saline) was 121 % of control and 120 % of control; the T/C (endpoint: mean survival time, dose: 12.5 mg/kg/injection, schedule: Q04DX003 (ip), vehicle: saline) was 119 % of control; the T/C (endpoint: mean survival time, dose: 20.0 mg/kg/injection, schedule: Q01DX007 (ip), vehicle: saline) is 162 % of control. In addition, the T/C is, setting by setting: (endpoint: mean survival time, dose: 20.0 mg/kg/injection, schedule: Q01DX009 (ip), vehicle: saline) 164 % of control and 170 % of control; (endpoint: mean survival time, dose: 20.0 mg/kg/injection, schedule: Q04DX003 (ip), vehicle: saline) 152 % of control; (endpoint: mean survival time, dose: 23.0 mg/kg/injection, schedule: Q01DX009 (ip), vehicle: saline) 160 % of control; (endpoint: mean survival time, dose: 25.0 mg/kg/injection, schedule: Q01DX001 (ip), vehicle: saline) 110 % of control; (endpoint: mean survival time, dose: 25.0 mg/kg/injection, schedule: Q01DX009 (ip), vehicle: saline) 162 % of control [middle of 4 runs]; (endpoint: mean survival time, dose: 25.0 mg/kg/injection, schedule: Q04DX003 (ip), vehicle: saline) 151 % of control and 155 % of control. Further, the T/C is 171 % of control (endpoint: mean survival time, dose: 39.0 mg/kg/injection, schedule: Q01DX009 (ip), vehicle: saline); 152 % of control (endpoint: mean survival time, dose: 39.0 mg/kg/injection, schedule: Q04DX003 (ip), vehicle: saline); 167 % of control (endpoint: mean survival time, dose: 40.0 mg/kg/injection, schedule: Q01DX007 (ip), vehicle: saline); 171 % of control and 189 % of control and 206 % of control (endpoint: mean survival time, dose: 40.0 mg/kg/injection, schedule: Q01DX009 (ip), vehicle: saline); 152 % of control (endpoint: mean survival time, dose: 40.0 mg/kg/injection, schedule: Q04DX003 (ip), vehicle: saline); 150 % of control (endpoint: mean survival time, dose: 50.0 mg/kg/injection, schedule: Q01DX001 (ip), vehicle: saline). Moreover, the T/C was 219 % of control and 181 % of control and 239 % of control (endpoint: mean survival time, dose: 50.0 mg/kg/injection, schedule: Q01DX009 (ip), vehicle: saline); 177 % of control [middle of 4 runs] (endpoint: mean survival time, dose: 50.0 mg/kg/injection, schedule: Q04DX003 (ip), vehicle: saline); 106 % of control (endpoint: mean survival time, dose: 65.0 mg/kg/injection, schedule: Q01DX001 (oral), vehicle: saline); 168 % of control (endpoint: mean survival time, dose: 65.0 mg/kg/injection, schedule: Q01DX009 (ip), vehicle: saline); 90 % of control (endpoint: mean survival time, dose: 65.0 mg/kg/injection, schedule: Q01DX009 (oral), vehicle: saline); 179 % of control (endpoint: mean survival time, dose: 65.0 mg/kg/injection, schedule: Q04DX003 (ip), vehicle: saline). Also, the T/C runs as follows: (endpoint: mean survival time, dose: 100.0 mg/kg/injection, schedule: Q01DX001 (ip), vehicle: saline) 161 % of control and 172 % of control and 155 % of control; (endpoint: mean survival time, dose: 100.0 mg/kg/injection, schedule: Q01DX009 (ip), vehicle: saline) 95 % of control and 121 % of control; (endpoint: mean survival time, dose: 100.0 mg/kg/injection, schedule: Q04DX003 (ip), vehicle: saline) 261 % of control [middle of 5 runs]; (endpoint: mean survival time, dose: 108.0 mg/kg/injection, schedule: Q01DX001 (oral), vehicle: saline) 121 % of control; (endpoint: mean survival time, dose: 108.0 mg/kg/injection, schedule: Q01DX009 (oral), vehicle: saline) 86 % of control; (endpoint: mean survival time, dose: 108.0 mg/kg/injection, schedule: Q04DX003 (ip), vehicle: saline) 205 % of control. Further, the T/C runs as follows: (endpoint: mean survival time, dose: 108.0 mg/kg/injection, schedule: Q08DX002 (ip), vehicle: saline) 150 % of control; (endpoint: mean survival time, dose: 180.0 mg/kg/injection, schedule: Q01DX001 (ip), vehicle: saline) 150 % of control; (endpoint: mean survival time, dose: 180.0 mg/kg/injection, schedule: Q01DX001 (oral), vehicle: saline) 119 % of control; (endpoint: mean survival time, dose: 200.0 mg/kg/injection, schedule: Q01DX001 (ip), vehicle: saline) 277 % of control and 288 % of control and 517 % of control; (endpoint: mean survival time, dose: 200.0 mg/kg/injection, schedule: Q04DX003 (ip), vehicle: saline) 121 % of control and 123 % of control.
On to `CC1=NOC(=O)C1C(C)(C)C1C(=O)ON=C1C` (stereo not given), for which the T/C (endpoint: mean survival time, dose: 100.0 mg/kg/injection, schedule: Q01DX009 (ip), vehicle: saline with Tween-80) was 107 % of control; the T/C (endpoint: mean survival time, dose: 200.0 mg/kg/injection, schedule: Q01DX009 (ip), vehicle: saline with Tween-80) was 104 % of control; the T/C (endpoint: mean survival time, dose: 400.0 mg/kg/injection, schedule: Q01DX009 (ip), vehicle: saline with Tween-80) is 104 % of control.
Consider `ClC1C(Cl)(Cl)C1(Cl)Cl`, for which the T/C reads like this: (endpoint: mean survival time, dose: 37.5 mg/kg/injection, schedule: Q01DX001 (ip), vehicle: saline) 100 % of control; (endpoint: mean survival time, dose: 75.0 mg/kg/injection, schedule: Q01DX001 (ip), vehicle: saline) 102 % of control; (endpoint: mean survival time, dose: 150.0 mg/kg/injection, schedule: Q01DX001 (ip), vehicle: saline) 95 % of control.
`NC(=O)c1ncn(C2OCC(O)C(O)C2O)c1N` (stereo not given): the T/C was 87 % of control and 95 % of control (endpoint: mean survival time, dose: 12.5 mg/kg/injection, schedule: Q01DX005 (ip), vehicle: water); 90 % of control and 93 % of control (endpoint: mean survival time, dose: 25.0 mg/kg/injection, schedule: Q01DX005 (ip), vehicle: water); 92 % of control (endpoint: mean survival time, dose: 50.0 mg/kg/injection, schedule: Q01DX005 (ip), vehicle: water); 98 % of control (endpoint: mean survival time, dose: 100.0 mg/kg/injection, schedule: Q01DX005 (ip), vehicle: water); 98 % of control and 95 % of control (endpoint: mean survival time, dose: 200.0 mg/kg/injection, schedule: Q01DX005 (ip), vehicle: water); 96 % of control (endpoint: median survival time, dose: 12.5 mg/kg/injection, schedule: Q01DX005 (ip), vehicle: water). Further, the T/C was 106 % of control (endpoint: median survival time, dose: 25.0 mg/kg/injection, schedule: Q01DX005 (ip), vehicle: water); 102 % of control (endpoint: median survival time, dose: 50.0 mg/kg/injection, schedule: Q01DX005 (ip), vehicle: water); 98 % of control (endpoint: median survival time, dose: 100.0 mg/kg/injection, schedule: Q01DX005 (ip), vehicle: water); 108 % of control (endpoint: median survival time, dose: 200.0 mg/kg/injection, schedule: Q01DX005 (ip), vehicle: water).
For the compound `O=S(=O)(NC1CCCC2C=CC=CC21)c1ccccc1` (stereo not given), the T/C by setting is: (endpoint: mean survival time, dose: 100.0 mg/kg/injection, schedule: Q01DX001 (ip), vehicle: saline with Tween-80) 94 % of control; (endpoint: mean survival time, dose: 200.0 mg/kg/injection, schedule: Q01DX001 (ip), vehicle: saline with Tween-80) 102 % of control; (endpoint: mean survival time, dose: 400.0 mg/kg/injection, schedule: Q01DX001 (ip), vehicle: saline with Tween-80) 96 % of control.
